Laboratory results published in ChEMBL document CHEMBL1201862, “PubChem BioAssay data set” (2004).
The source made the active and inactive calls.

What was measured:
Bcl-2-related protein A1 [1] = target: T1, Bcl-2-related protein A1 (Mus musculus, UniProt Q07440); assay: Bfl-1 binding inhibitors, SAR follow-up, biochemical, fluorescence polarization (AID 1070)
T1 sequence (Q07440 whole entry): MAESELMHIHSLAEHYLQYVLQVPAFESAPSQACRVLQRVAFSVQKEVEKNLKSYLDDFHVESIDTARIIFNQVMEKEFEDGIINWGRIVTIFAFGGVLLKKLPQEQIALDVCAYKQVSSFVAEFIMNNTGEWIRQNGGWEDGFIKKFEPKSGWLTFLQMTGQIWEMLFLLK

[2] = target: Glyceraldehyde-3-phosphate dehydrogenase (Homo sapiens, UniProt P04406)
Bcl-2-related protein A1 [3] = target: T1, Bcl-2-related protein A1; assay: small-molecule antagonists of Bfl-1/BH3 interaction – biochemical, TR-FRET, mouse Bfl-1, confirmation (AID 621);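 note: TR-FRET binding of GST-Bfl-1 to FITC-labelled Bid peptide via terbium antibody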
[4] = target: Sphingosine 1-phosphate receptor 2 (Homo sapiens, UniProt O95136); assay: Dose Response Cell Based Assay for Agonists of the S1P2 Receptor of Purchased Analogues. [Related pubchem assays: 729, 843, 854, 736 ]; format: functional
Aspartyl aminopeptidase = Aspartyl aminopeptidase (Plasmodium falciparum 3D7, UniProt Q8I2J3); assay: Counterscreen for inhibitors of M1 and M17 aminopeptidases: QFRET-based biochemical high throughput dose response assay for inhibitors of the Plasmodium falciparum M18 Aspartyl Aminopeptidase (PFM18AAP). [Related PubChem assays: 1619 (Screening assay (M17LAP inhibitors).), 1445 (Screening assay (M1AAP inhibitors).)]
HEK293 [5] = assay: NOD2 signaling inhibitors in MDP-stimulated cells, cell-based, uHTS, luminescence (AID 2001); format: functional; conditions: Homo sapiens
Aminopeptidase N = target: T2, Aminopeptidase N (Plasmodium falciparum FcB1/Columbia, UniProt O96935); assay: malaria alanyl aminopeptidase activity blockers – biochemical, fluorogenic H-Leu-NHMec substrate, 1536-well (AID 1445); parameters: species or system Plasmodium falciparum 3D7, 3D7
T2 sequence (O96935 whole entry): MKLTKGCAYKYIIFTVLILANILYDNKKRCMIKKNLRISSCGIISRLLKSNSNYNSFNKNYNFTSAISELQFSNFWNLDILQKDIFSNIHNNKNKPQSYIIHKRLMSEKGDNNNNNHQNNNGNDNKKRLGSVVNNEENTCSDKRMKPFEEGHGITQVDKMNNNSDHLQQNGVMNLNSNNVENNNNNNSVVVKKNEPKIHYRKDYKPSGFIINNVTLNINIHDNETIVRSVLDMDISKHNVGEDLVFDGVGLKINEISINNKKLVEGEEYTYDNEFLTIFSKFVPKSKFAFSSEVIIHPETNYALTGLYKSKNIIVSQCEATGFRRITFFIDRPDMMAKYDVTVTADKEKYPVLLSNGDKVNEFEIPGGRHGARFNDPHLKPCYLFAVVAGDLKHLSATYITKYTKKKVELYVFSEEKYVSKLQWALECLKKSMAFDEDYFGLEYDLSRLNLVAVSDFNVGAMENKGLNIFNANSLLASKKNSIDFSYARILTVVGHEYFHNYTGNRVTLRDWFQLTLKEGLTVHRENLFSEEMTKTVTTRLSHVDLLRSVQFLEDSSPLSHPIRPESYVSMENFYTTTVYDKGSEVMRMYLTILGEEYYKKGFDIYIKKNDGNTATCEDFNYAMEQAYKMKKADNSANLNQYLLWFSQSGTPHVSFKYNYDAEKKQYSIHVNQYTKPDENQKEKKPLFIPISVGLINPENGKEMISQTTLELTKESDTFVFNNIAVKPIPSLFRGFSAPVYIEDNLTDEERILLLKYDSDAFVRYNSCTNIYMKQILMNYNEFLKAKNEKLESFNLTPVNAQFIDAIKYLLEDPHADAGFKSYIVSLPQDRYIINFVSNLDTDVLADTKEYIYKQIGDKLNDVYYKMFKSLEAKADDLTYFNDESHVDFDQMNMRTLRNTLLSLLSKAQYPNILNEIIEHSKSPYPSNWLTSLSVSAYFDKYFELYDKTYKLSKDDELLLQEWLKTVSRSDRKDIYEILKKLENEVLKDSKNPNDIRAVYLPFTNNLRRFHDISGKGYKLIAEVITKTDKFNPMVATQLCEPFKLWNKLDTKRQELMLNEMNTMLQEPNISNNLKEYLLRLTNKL

HEK293 [6] = assay: cells; format: functional, cell-based; conditions: Homo sapiens
HEK293 [7] = assay: cells; format: functional, cell-based; conditions: Homo sapiens; remark: listed apart in the source
Procathepsin L = Procathepsin L (Homo sapiens, UniProt P07711); assay: CTSL1 protease inhibition – biochemical, QFRET, 1536-well, counter-screen for M1/M17 aminopeptidase inhibitor project, dose response (AID 2214)
HEK293 [8] = assay: inhibition of NOD1-driven NF-kB reporter – cell-based, luminescence, uHTS, primary screen (AID 1578); format: functional; conditions: Homo sapiens
[9] = target: T3, Calpain-2 catalytic subunit (Sus scrofa, UniProt P43367); assay: m-calpain protease blockers, concentration series – biochemical, fluorogenic peptide substrate, dose response (AID 1420); format: functional
T3 sequence (P43367 whole entry): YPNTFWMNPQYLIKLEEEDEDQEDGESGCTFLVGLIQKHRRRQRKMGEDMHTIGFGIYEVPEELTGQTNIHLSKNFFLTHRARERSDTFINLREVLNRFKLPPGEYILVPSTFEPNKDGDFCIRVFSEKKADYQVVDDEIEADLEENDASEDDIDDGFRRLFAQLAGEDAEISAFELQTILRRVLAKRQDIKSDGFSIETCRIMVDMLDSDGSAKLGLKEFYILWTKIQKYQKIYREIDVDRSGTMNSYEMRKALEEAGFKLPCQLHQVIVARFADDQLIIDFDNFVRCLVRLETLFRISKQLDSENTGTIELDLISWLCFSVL

[10] = M. tuberculosis H37Rv growth inhibitors, H37Rv strain (AID 1626); format: functional
Mu-type opioid receptor = Mu-type opioid receptor (Homo sapiens, UniProt P35372); assay: Counterscreen for agonists of heterodimerization of the mu 1 (OPRM1) and delta 1 (OPRD1) opioid receptors: Luminescence-based cell-based high throughput dose response assay to identify agonists of OPRM1 homodimerization.; format: functional;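 note: U2OS cells expressing OPRM1 and beta-arrestin as split beta-galactosidase partners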
[11] = target: Protein-tyrosine kinase 2-beta (Homo sapiens, UniProt Q14289);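 note: potency of inhibitors of PYK2 kinase phosphorylation of poly-GT substrate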
[12] = target: 5-hydroxytryptamine receptor 5A (Homo sapiens, UniProt P47898); assay: Counterscreen for agonists of OPRM1-OPRD1 heterodimerization: luminescence-based cell-based high throughput dose response assay to identify agonists of 5-hydroxytryptamine (serotonin) 5A receptor (HTR5A). [Related pubchem assays (depositor defined):AID504326, AID504355, AID504692, AID504904, AID504905]; format: functional
[13] = target: Peroxisome proliferator-activated receptor gamma/Nuclear receptor coactivator 2 (Homo sapiens, UniProt P37231); format: functional;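 note: agonist potency for raising coactivator recruitment to the receptor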
[14] = Luminescence Cell-Based Dose Response HTS to Identify Inhibitors of 5'UTR Stem-Loop Driven Prion Protein mRNA Translation in H4 Neuroglioblastoma Cells. [Related pubchem assays: 1827 (Project Summary), 1813 (Primary HTS)]; format: functional
[15] = NIH3T3 cell viability loss – ATP luminescence, mouse fibroblasts, counter-screen, dose response (AID 2010); format: functional, cell-based;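 note: cells exposed to compound for about 90 hours before reading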
[16] = target: Peroxisome proliferator-activated receptor gamma/Nuclear receptor coactivator 1 (Homo sapiens, UniProt P37231); format: functional;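 note: agonist potency as compounds enhance coactivator SRC-1 recruitment to PPARgamma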
[17] = target: Peroxisome proliferator-activated receptor gamma/Nuclear receptor coactivator 3 (Homo sapiens, UniProt P37231); format: functional;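 note: agonist potency for raising coactivator recruitment to the receptor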
[18] = target: 72 kDa type IV collagenase (Homo sapiens, UniProt P08253); assay: Dose Response validation of uHTS RPN11 inhibitor hits using a MMP-2 Fluorescence assay.; format: functional
[19] = target: 26S proteasome non-ATPase regulatory subunit 14 (Homo sapiens, UniProt O00487); assay: inhibition of proteasome subunit RPN11 – biochemical, fluorescence polarization, uHTS hits, confirmation (AID 602368); format: functional
Prothrombin = Prothrombin (Bos taurus, UniProt P00735); assay: thrombin protease inhibitors – biochemical, fluorescence polarization, uHTS hits, dose response (AID 602369); format: functional
[20] = target: Delta-type opioid receptor (Homo sapiens, UniProt P41143); assay: Counterscreen for agonists of heterodimerization of the mu 1 (OPRM1) and delta 1 (OPRD1) opioid receptors: Luminescence-based cell-based high throughput dose response assay to identify agonists of OPRD1 homodimerization. [Related pubchem assays (depositor defined):AID504326, AID504355, AID504692, AID504904, AID504905]; format: functional
[21] = Trypanosoma cruzi growth suppression in host cells – NIH3T3 host cells, beta-gal luminescence, confirmation (AID 2044); format: functional, cell-based;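 note: intracellular parasites grown in NIH/3T3 mouse fibroblasts as host cells; luminescent beta-galactosidase reporter signal from transgenic T. cruzi replicating inside host cells; inhibitors lower the luminescence signal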
14-3-3 protein gamma = 14-3-3 protein gamma (Homo sapiens, UniProt P61981); assay: modulators of 14-3-3 gamma client binding – dose response (AID 711); format: functional
[22] = target: T4, E3 ubiquitin-protein ligase XIAP (Homo sapiens, UniProt P98170); assay: Counter Screen using XIAP-Bir3 for Chemical Antagonists of Bir1/2 domains of IAP-family anti-apoptotic proteins. [Related pubchem assays (depositor defined):AID1018, AID1449, AID1514, AID1638, AID1749, AID1750, AID488957, AID488963]
[23] = target: T4, E3 ubiquitin-protein ligase XIAP; assay: small molecules displacing peptide from XIAP – biochemical, IAP family, fluorescence polarization (AID 1018); format: functional
Galanin receptor type 3 = Galanin receptor type 3 (Homo sapiens, UniProt O60755); assay: Fluorescence-based cell-based primary high throughput dose response assay to identify antagonists of the Galanin Receptor 3 (GalR3).; format: functional
[24] = target: COUP transcription factor 2 (Homo sapiens, UniProt P24468); assay: Luminescence-based cell-based high throughput dose response assay to identify inhibitors of COUP-TFII (NR2F2).; format: functional;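 note: HEK293 cells transiently cotransfected with COUP-TFII expression vector and reporter; luciferase reporter luminescence driven by COUP-TFII from the pX2-168 reporter plasmid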
cells = format: functional, cell-based; conditions: HEK-CNG
[25] = target: T5, Heat shock factor protein 1 (Mus musculus, UniProt P38532); assay: decrease of HSF1-responsive luciferase luminescence – cell-based, NIH3T3, dose retest, confirmation (AID 2382); format: functional;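 note: NIH3T3 fibroblasts with HSF1-driven luciferase reporter stressed by proteasome inhibitor MG132; luminescence from HSF1-driven luciferase expression after 8 hours of MG132 stress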
T5 sequence (P38532 whole entry): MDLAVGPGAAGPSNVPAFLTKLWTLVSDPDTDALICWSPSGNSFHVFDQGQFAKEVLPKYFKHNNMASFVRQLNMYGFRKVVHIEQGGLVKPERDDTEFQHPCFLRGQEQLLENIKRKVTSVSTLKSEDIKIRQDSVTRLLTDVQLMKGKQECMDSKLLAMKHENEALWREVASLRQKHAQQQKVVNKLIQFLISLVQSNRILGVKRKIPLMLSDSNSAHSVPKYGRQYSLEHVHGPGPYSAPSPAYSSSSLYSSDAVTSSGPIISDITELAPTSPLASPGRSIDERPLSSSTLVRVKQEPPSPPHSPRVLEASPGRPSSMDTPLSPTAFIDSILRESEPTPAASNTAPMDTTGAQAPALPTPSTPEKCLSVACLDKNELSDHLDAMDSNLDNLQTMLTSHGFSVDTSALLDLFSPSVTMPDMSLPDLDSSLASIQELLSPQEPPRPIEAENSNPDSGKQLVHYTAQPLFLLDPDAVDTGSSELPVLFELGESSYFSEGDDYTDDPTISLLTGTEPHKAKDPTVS

Galanin receptor type 2 = Galanin receptor type 2 (Homo sapiens, UniProt O43603); assay: Dose Response cell-based high-throughput screening assay to identify antagonists of galanin receptor 2 (GALR2). [Related pubchem assays: 828, 866 ]; format: functional
[26] = A High Throughput Confirmatory Assay used to Identify Novel Compounds that Inhibit Mycobacterium Tuberculosis in the absence of Glycerol.; format: functional

T4 sequence (P98170 whole entry): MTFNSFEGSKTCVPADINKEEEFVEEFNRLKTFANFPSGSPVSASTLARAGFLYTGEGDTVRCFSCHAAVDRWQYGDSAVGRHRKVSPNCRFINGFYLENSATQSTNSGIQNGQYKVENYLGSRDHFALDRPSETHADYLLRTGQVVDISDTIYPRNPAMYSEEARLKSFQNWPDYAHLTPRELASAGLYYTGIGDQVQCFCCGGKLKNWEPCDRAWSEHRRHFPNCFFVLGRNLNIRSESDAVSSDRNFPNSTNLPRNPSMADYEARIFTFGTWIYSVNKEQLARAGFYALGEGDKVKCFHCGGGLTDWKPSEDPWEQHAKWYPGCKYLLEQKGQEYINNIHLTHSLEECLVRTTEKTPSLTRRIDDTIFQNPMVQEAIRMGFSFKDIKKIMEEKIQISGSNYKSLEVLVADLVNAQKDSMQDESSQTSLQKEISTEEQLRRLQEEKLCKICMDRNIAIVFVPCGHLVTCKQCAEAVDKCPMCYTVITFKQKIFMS
Sequence of Sphingosine 1-phosphate receptor 2 (O95136 whole entry): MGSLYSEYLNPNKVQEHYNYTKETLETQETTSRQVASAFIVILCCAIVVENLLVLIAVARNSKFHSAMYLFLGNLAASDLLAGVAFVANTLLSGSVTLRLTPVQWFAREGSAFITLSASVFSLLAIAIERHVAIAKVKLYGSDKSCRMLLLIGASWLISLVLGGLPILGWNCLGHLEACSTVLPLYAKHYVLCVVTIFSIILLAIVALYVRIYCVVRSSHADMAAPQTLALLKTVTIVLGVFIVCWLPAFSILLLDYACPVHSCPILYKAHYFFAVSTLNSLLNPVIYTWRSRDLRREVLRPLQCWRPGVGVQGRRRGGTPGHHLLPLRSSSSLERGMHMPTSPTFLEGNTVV
Sequence of 72 kDa type IV collagenase (P08253 whole entry): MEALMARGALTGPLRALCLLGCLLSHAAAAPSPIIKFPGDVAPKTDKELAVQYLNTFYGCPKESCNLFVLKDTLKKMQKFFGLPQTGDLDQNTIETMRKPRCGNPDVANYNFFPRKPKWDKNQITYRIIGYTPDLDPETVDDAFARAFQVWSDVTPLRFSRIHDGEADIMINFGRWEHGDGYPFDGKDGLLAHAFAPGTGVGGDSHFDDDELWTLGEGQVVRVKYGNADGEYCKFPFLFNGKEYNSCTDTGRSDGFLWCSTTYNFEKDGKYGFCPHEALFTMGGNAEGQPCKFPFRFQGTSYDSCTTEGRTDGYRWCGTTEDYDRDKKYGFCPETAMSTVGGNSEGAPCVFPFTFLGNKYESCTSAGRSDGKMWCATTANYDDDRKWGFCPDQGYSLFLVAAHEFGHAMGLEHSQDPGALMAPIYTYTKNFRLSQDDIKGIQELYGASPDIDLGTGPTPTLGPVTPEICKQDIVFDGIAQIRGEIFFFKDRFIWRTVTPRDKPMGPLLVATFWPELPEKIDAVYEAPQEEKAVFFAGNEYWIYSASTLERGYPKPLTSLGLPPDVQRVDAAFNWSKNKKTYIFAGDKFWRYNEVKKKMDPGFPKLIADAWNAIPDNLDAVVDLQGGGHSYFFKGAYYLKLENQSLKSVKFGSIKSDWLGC
Sequence of COUP transcription factor 2 (P24468 whole entry): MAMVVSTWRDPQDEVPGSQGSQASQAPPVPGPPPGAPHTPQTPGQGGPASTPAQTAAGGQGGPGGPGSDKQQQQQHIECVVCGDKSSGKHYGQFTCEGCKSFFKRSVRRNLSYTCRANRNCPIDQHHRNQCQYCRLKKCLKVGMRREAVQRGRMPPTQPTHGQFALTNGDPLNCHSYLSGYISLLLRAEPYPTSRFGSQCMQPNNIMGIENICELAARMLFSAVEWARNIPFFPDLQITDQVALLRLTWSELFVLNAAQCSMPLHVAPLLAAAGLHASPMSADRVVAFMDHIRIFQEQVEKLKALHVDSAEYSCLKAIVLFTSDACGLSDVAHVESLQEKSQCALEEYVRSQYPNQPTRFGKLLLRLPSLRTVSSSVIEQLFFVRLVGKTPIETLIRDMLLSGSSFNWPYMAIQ
Sequence of Aspartyl aminopeptidase (Q8I2J3 whole entry): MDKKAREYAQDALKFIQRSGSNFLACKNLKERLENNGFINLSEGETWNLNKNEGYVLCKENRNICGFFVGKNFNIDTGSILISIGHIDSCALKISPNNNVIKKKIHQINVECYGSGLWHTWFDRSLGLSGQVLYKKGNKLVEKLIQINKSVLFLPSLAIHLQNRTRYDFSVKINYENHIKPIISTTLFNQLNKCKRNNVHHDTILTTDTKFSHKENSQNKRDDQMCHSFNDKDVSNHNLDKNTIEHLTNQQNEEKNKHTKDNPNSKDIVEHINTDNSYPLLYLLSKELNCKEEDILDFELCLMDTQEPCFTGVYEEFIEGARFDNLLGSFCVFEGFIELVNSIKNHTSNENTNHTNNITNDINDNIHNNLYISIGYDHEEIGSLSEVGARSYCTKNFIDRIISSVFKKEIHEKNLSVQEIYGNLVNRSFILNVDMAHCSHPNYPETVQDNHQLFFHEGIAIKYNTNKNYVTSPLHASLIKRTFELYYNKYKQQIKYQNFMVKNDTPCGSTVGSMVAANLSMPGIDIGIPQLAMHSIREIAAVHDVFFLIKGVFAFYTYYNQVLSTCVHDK
Sequence of Galanin receptor type 3 (O60755 whole entry): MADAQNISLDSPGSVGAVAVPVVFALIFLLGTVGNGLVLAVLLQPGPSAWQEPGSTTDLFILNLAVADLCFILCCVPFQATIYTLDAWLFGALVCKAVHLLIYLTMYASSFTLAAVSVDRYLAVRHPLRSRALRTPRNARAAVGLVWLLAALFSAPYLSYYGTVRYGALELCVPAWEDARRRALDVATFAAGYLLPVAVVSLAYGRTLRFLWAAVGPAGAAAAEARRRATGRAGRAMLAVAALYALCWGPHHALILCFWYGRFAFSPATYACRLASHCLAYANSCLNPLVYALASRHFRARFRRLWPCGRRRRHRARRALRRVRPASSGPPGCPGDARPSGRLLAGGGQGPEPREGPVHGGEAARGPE
Sequence of Galanin receptor type 2 (O43603 whole entry): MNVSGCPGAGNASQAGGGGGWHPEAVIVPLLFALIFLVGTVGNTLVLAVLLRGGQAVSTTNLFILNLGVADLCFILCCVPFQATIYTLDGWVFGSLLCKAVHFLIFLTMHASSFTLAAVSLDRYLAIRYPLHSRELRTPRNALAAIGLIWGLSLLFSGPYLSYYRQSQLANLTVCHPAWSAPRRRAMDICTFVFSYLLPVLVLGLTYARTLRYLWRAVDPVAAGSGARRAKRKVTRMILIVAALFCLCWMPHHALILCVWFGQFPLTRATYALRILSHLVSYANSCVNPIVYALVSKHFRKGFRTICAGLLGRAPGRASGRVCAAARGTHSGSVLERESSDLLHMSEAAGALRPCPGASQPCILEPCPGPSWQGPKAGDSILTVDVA
Sequence of Procathepsin L (P07711 whole entry): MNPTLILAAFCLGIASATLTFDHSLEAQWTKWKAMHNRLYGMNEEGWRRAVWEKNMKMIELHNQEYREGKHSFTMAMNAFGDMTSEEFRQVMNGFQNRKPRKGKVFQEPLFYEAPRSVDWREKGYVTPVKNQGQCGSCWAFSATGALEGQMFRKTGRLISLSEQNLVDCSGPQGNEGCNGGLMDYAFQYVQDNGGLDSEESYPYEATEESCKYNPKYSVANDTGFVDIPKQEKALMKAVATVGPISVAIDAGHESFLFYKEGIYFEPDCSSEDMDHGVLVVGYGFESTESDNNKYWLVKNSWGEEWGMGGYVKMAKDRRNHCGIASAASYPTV
Sequence of Delta-type opioid receptor (P41143 whole entry): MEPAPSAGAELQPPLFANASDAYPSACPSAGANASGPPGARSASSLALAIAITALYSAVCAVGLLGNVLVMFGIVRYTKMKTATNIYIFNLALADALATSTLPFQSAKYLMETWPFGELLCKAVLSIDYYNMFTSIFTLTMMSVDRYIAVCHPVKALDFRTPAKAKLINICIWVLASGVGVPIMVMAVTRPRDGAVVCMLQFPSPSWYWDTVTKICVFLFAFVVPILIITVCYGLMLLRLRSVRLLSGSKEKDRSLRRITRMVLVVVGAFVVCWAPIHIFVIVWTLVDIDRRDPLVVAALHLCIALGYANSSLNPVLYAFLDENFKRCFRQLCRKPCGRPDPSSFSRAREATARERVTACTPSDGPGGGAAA
Sequence of Protein-tyrosine kinase 2-beta (Q14289 whole entry): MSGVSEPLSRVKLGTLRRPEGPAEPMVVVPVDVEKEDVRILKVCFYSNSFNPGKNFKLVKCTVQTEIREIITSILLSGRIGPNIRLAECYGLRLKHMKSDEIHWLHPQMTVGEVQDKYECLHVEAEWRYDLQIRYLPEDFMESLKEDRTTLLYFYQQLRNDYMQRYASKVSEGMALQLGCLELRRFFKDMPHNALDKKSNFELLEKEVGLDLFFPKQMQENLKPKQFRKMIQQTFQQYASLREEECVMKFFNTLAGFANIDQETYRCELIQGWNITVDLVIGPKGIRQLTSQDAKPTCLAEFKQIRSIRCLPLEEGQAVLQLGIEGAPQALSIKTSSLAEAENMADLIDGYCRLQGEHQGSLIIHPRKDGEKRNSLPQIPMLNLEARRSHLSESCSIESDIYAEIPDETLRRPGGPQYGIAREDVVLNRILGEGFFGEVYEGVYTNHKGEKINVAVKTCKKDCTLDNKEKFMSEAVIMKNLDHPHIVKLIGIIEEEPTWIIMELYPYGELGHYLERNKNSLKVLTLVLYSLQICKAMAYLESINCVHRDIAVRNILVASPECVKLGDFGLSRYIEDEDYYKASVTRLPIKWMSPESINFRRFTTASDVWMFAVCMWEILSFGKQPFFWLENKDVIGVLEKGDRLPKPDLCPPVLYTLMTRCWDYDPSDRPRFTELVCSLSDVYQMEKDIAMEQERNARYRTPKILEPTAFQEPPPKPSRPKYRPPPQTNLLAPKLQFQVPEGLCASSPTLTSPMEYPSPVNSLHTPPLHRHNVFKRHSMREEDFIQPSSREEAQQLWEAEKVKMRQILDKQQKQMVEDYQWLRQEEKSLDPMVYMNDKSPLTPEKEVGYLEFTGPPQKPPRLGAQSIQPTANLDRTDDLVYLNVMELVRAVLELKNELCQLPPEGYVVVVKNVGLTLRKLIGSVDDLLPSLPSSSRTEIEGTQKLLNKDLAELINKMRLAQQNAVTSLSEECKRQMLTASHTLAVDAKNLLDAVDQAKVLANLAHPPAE

O=C1C(Cl)=C(N2CCN(CCOCCO)CC2)C(=O)N1c1ccnc(Cl)c1
IC50 (Bcl-2-related protein A1 [1]): 33.2 µM (active)
IC50 [2]: > 100 µM (not active)
IC50 (Bcl-2-related protein A1 [3]): 20.5 µM (active)

Cc1nn(CC(=O)c2cc(C)n(Cc3ccccc3)c2C)c(C)c1[N+](=O)[O-]
EC50 [4]: > 30 µM (not active)

O=C(O)C(Cc1ccccc1)N1C(=O)/C(=C/c2cccc3ccccc23)SC1=S (stereo not given)
IC50 (Aspartyl aminopeptidase): > 73.5 µM (not active)
IC50 (HEK293 [5]): 18.5 µM (inactive)
IC50 (Aminopeptidase N): 14.9 µM (active)
IC50 (HEK293 [6]): > 20 µM (inactive)
IC50 (HEK293 [7]): > 20 µM (inactive)
IC50 (Procathepsin L): 28.4 µM (not active)
EC50 (HEK293 [8]): 16.5 µM (active)
IC50 [9]: > 50 µM (not active)

Fc1ccc(-c2nnc(CSc3nnc(-c4cccs4)o3)o2)cc1
IC50 [10]: > 100 µM (active)

O=C(COc1ccc(/C=N/NC(=O)c2cc3ccccc3o2)cc1Br)Nc1ccccc1
EC50 (Mu-type opioid receptor): > 92.5 µM (inactive)
IC50 [11]: > 2.57 µM (not active)
EC50 [12]: > 92.5 µM (inactive)
EC50 [13]: > 79.4 µM (not active)
EC50 [14]: 9.11 µM (inconclusive)
EC50 [15]: > 60 µM (not active)
EC50 [16]: > 79.4 µM (not active)
EC50 [17]: > 79.4 µM (not active)
IC50 [18]: > 100 µM (inactive)
IC50 [19]: 12.4 µM (active)
IC50 (Prothrombin): 76.3 µM (active)
EC50 [20]: > 92.5 µM (inactive)
EC50 [21]: 1.97 µM (active)

CCn1c(CSc2nnc(-c3cccnc3)n2-c2ccccc2C)nc2cc(C(=O)O)ccc21
IC50 (14-3-3 protein gamma): < 0.781 µM (active)
IC50 [22]: > 1.56 µM (inactive)
IC50 [23]: > 0.781 µM (not active)

Cc1sc2ncnc(NCCc3ccc(S(N)(=O)=O)cc3)c2c1C
IC50 (Galanin receptor type 3): 2.95 µM (active)
IC50 [24]: 4.23 µM (active)
EC50 (cells): > 29.9 µM (inactive)
EC50 [25]: > 195 µM (not active)
IC50 (Galanin receptor type 2): > 42 µM (not active)

CC(Oc1cc2oc(=O)c3c(c2cc1Cl)CCCC3)C(=O)NCc1ccccn1 (stereo not given)
IC50 [26]: > 100 µM (active)
